Test results published in patent US12188040B2, “Method for enhancing gene expression using AAV vector” (priority 2018, dated 2025).
Values joined by “and” are separate entries in the source; they are usually repeats but may differ in a detail not shown here. Identical values can stand only once. Like-named read-outs stand apart in the source and are kept apart here.

What was measured:
HepG2 cells [1] = test: GFP expression in HepG2 cells infected with AAV3B-CMV-AcGFP in the presence of sucrose; settings: Exp 3, AAV3B-CMV-AcGFP 5×10^8 vg/well, 3 days
Method: (§1) Three types of AAV vectors (AAV3B, yf2AAV9 and AAVGT4) were used.
(§2) To the culture cells of (b) above, 6×10^7 to 5×10^8 vg/well of AAV3B-CMV-AcGFP expressing GFP described in Item (a) above was added, or 2×10^9 vg/well of yf2AAV9-CMV-AcGFP was added, and then the cells were cultured for 3 to 6 days.
(§3) The fluorescence intensity of GFP was measured using a plate reader (BioTek Japan) and comparison thereof was made. Further, the images of typical view fields were taken using the fluorescence microscope (Olympus IX83).
(§4) On a 96 well Optical bottom plate, 5×10^4 cells/well of HepG2 cells were seeded, and 5×10^8 vg/well of AAVGT4-CMV-AcGFP or 5×10^8 vg/well of AAV3B-CMV-AcGFP was added to the medium on the next day. […] To a sucrose (−) control, the medium in the same amount as that of the sucrose solution was added. After cell cultivation for 3 days under 5% CO2 at 37° C. in an incubator, the fluorescence intensity of GFP was measured using the plate reader and comparison thereof was made.

HepG2 cells [2] = test: GFP expression in HepG2 cells infected with AAVGT4-CMV-AcGFP in the presence of sucrose; settings: Exp 3, AAVGT4-CMV-AcGFP 5×10^8 vg/well, 3 days
Method: as §1, §2, §3, §4

HEK293 cells [3] = test: GFP expression in HEK293 cells infected with yf2AAV9-CMV-AcGFP in the presence of sucrose; settings: Exp 1, yf2AAV9-CMV-AcGFP 2×10^9 vg/well, 3 days
Method: as §2, §3
On a 96 well Optical bottom plate (ThermoFisher), 5×10^4 cells/well of HEK293 cells were seeded, and the next day, either 2×10^8 vg/well of AAV3B-CMV-AcGFP or 2×10^9 vg/well of yf2AAV9-CMV-AcGFP was added thereto. […] To a sucrose (−) control, the same amount of the medium as that of the sucrose solution was added. After cell cultivation for 3 days under 5% CO2 at 37° C. in an incubator, the fluorescence intensity of GFP was measured using the plate reader (BioTek Japan) and comparison thereof was made (FIG. 1A). Further, the images of typical view fields were taken using the fluorescence microscope (Olympus IX83) (FIG. 1B).

HEK293 cells [4] = test system: HEK293 cells
Method: As the first procedure, 4 methods of the addition were carried out, including adding sucrose immediately (5 minutes or less) after the administration of the AAV vector, and the administration of the AAV vector immediately (5 minutes or less) after, 10 minutes after or 1 hour after adding sucrose to cells.
In the same manner as the above-described procedure, the GFP expression level was measured 3 days later.
In the same manner as the above-described procedures, the GFP expression level was measured 3 days later.
AAV3B-CMV-AcGFP was mixed in advance with sucrose at each of various concentrations, and the mixture was allowed to stand at room temperature for 1 hour followed by administration to cells. […] In order to prevent cell damage due to a buffer at the time of dilution of sucrose, medium replacement was carried out using a sucrose solution having the same concentration that was prepared by the medium 3 hours after the administration.

[5] = Exp 2, AAV3B 6×10^7 vg/well, iso-osmotic additives: sucrose 125.0, glucose 132.3, mannitol 132.3, NaCl 71.5 mM, 3 days
[6] = Exp 6, sucrose 187 mM, data not shown

OC[C@H]1O[C@@](CO)(O[C@H]2O[C@H](CO)[C@@H](O)[C@H](O)[C@H]2O)[C@@H](O)[C@@H]1O [Sucrose, sucrose]
(+)/(−) GFP expression increase (HepG2 cells [1]; sucrose 125 mM vs none): 16.1 times | GFP fluorescence intensity (HepG2 cells [1]; sucrose 125 mM): 970.8 | (+)/(−) GFP expression increase (HepG2 cells [2]; sucrose 125 mM vs none): 19.1 times | GFP fluorescence intensity (HepG2 cells [2]; sucrose 125 mM): 579.8 | GFP fluorescence intensity (HEK293 cells [3]; sucrose 125 mM final): 321.4 | (+)/(−) GFP expression increase (HEK293 cells [3]; sucrose 125 mM vs no sucrose): 19.6 times | GFP fluorescence intensity (HEK293 cells [4]; Exp 1, AAV3B-CMV-AcGFP 2×10^8 vg/well, sucrose 125 mM final, 3 days): 9257.45 | (+)/(−) GFP expression increase (HEK293 cells [4]; Exp 1, AAV3B-CMV-AcGFP 2×10^8 vg/well, sucrose 125 mM vs no sucrose, 3 days): 15.4 times | GFP intensity (HEK293 cells [4]; [5]): 1844.8 | Relativeness (vs No Additive) (HEK293 cells [4]; [5]): 11 times and 11.2 times | Fluorescence Intensity (HEK293 cells [4]; Exp 4A, AAV3B 1×10^8 vg/well, AAV 10 min after sucrose 125 mM, 3 days): 2580.3 | Fluorescence Intensity (HEK293 cells [4]; Exp 4A, AAV3B 1×10^8 vg/well, AAV 1 hr after sucrose 125 mM, 3 days): 3047 | Fluorescence Intensity (HEK293 cells [4]; Exp 4A, AAV3B 1×10^8 vg/well, AAV immediately after sucrose 125 mM, 3 days): 2356.2 | Fluorescence Intensity (HEK293 cells [4]; Exp 4A, AAV3B 1×10^8 vg/well, sucrose 125 mM added immediately after AAV, 3 days): 2500.8 | Relativeness (vs Sucrose(−)) (HEK293 cells [4]; Exp 4A, AAV 10 min after sucrose 125 mM, 3 days): 10.5 | Relativeness (vs Sucrose(−)) (HEK293 cells [4]; Exp 4A, AAV 1 hr after sucrose 125 mM, 3 days): 12.4 | Relativeness (vs Sucrose(−)) (HEK293 cells [4]; Exp 4A, AAV immediately after sucrose 125 mM, 3 days): 9.6 | Relativeness (vs Sucrose(−)) (HEK293 cells [4]; Exp 4A, sucrose 125 mM added immediately after AAV, 3 days): 10.2 | Increase of expression (HEK293 cells [4]; Exp 4A, sucrose 125 mM, any of the adding methods, 3 days): about 10 times | Fluorescence Intensity (HEK293 cells [4]; Exp 4B, AAV3B 1×10^8 vg/well premixed with sucrose (125 mM final), administered 1 hr after mixing, 3 days): 3049.8 | Fluorescence Intensity (HEK293 cells [4]; Exp 4B, AAV3B 1×10^8 vg/well premixed with sucrose (125 mM final), administered immediately after mixing, 3 days): 3002.5 | Relativeness (vs (−) => (−)) (HEK293 cells [4]; Exp 4C, (+) => (+): sucrose from immediately after AAV, 3 days): 4.9 times | Relativeness (vs (−) => (−)) (HEK293 cells [4]; Exp 4C, (−) => (+): sucrose added 3 hours later, 3 days): 2.8 times | Fluorescence Intensity (HEK293 cells [4]; Exp 4C, AAV3B 1×10^8 vg/well, (+) => (+): sucrose 125 mM from immediately after AAV, 3 days): 534.5 | Fluorescence Intensity (HEK293 cells [4]; Exp 4C, AAV3B 1×10^8 vg/well, (−) => (+): sucrose 125 mM only from medium replacement 3 h after AAV, 3 days): 309.8 | Optimum concentration for expression enhancement (HEK293 cells [4]; Exp 6, after 3 days): 150 mM | Fluorescence Intensity (HEK293 cells [4]; Exp 6, sucrose 80 mM, AAV3B 1×10^8 vg/well premixed 1 h, 3 days): 1026.0 | Relativeness (vs 0 mM) (HEK293 cells [4]; Exp 6, sucrose 90 mM, 3 days): 6.4 | Fluorescence Intensity (HEK293 cells [4]; Exp 6, sucrose 90 mM, AAV3B 1×10^8 vg/well premixed 1 h, 3 days): 1230.5 | Relativeness (vs 0 mM) (HEK293 cells [4]; Exp 6, sucrose 100 mM, 3 days): 8.1 | Fluorescence Intensity (HEK293 cells [4]; Exp 6, sucrose 100 mM, AAV3B 1×10^8 vg/well premixed 1 h, 3 days): 1568.3 | Relativeness (vs 0 mM) (HEK293 cells [4]; Exp 6, sucrose 105 mM, 3 days): 9.2 | Fluorescence Intensity (HEK293 cells [4]; Exp 6, sucrose 105 mM, AAV3B 1×10^8 vg/well premixed 1 h, 3 days): 1769.3 | Relativeness (vs 0 mM) (HEK293 cells [4]; Exp 6, sucrose 110 mM, 3 days): 10.1 | Fluorescence Intensity (HEK293 cells [4]; Exp 6, sucrose 110 mM, AAV3B 1×10^8 vg/well premixed 1 h, 3 days): 1952.3 | Relativeness (vs 0 mM) (HEK293 cells [4]; Exp 6, sucrose 115 mM, 3 days): 12.2 | Fluorescence Intensity (HEK293 cells [4]; Exp 6, sucrose 115 mM, AAV3B 1×10^8 vg/well premixed 1 h, 3 days): 2351.3 | Relativeness (vs 0 mM) (HEK293 cells [4]; Exp 6, sucrose 120 mM, 3 days): 15.3 | Fluorescence Intensity (HEK293 cells [4]; Exp 6, sucrose 120 mM, AAV3B 1×10^8 vg/well premixed 1 h, 3 days): 2941.0 | Relativeness (vs 0 mM) (HEK293 cells [4]; Exp 6, sucrose 125 mM, 3 days): 18.8 | Fluorescence Intensity (HEK293 cells [4]; Exp 6, sucrose 125 mM, AAV3B 1×10^8 vg/well premixed 1 h, 3 days): 3626.8 | Relativeness (vs 0 mM) (HEK293 cells [4]; Exp 6, sucrose 130 mM, 3 days): 21.1 | Fluorescence Intensity (HEK293 cells [4]; Exp 6, sucrose 130 mM, AAV3B 1×10^8 vg/well premixed 1 h, 3 days): 4069.0 | Relativeness (vs 0 mM) (HEK293 cells [4]; Exp 6, sucrose 135 mM, 3 days): 25.0 | Fluorescence Intensity (HEK293 cells [4]; Exp 6, sucrose 135 mM, AAV3B 1×10^8 vg/well premixed 1 h, 3 days): 4813.3 | Relativeness (vs 0 mM) (HEK293 cells [4]; Exp 6, sucrose 140 mM, 3 days): 29.2 | Fluorescence Intensity (HEK293 cells [4]; Exp 6, sucrose 140 mM, AAV3B 1×10^8 vg/well premixed 1 h, 3 days): 5620.5 | Fluorescence Intensity (HEK293 cells [4]; Exp 6, sucrose 145 mM, AAV3B 1×10^8 vg/well premixed 1 h, 3 days): 5763.8 | Fluorescence Intensity (HEK293 cells [4]; Exp 6, sucrose 150 mM, AAV3B 1×10^8 vg/well premixed 1 h, 3 days): 6411.8 | Fluorescence Intensity (HEK293 cells [4]; Exp 6, sucrose 160 mM, AAV3B 1×10^8 vg/well premixed 1 h, 3 days): 5922.5 | Cell damage (HEK293 cells [4]; [6]): damaged and detached | Decrease of GFP intensity (HEK293 cells [4]; [6]): about 20% | Fluorescence Intensity (HEK293 cells [4]; Exp 8, disaccharide 100 mM in medium, AAV3B 1×10^8 vg/well, Day 3): 1312.7 | Relativeness (vs No Sugar) (HEK293 cells [4]; Exp 8, disaccharide 100 mM, Day 3): 2.2 | Fluorescence Intensity (HEK293 cells [4]; Exp 8, disaccharide 125 mM in medium, AAV3B 1×10^8 vg/well, Day 3): 1760.5 | Relativeness (vs No Sugar) (HEK293 cells [4]; Exp 8, disaccharide 125 mM, Day 3): 2.9 | Fluorescence Intensity (HEK293 cells [4]; Exp 8, disaccharide 150 mM in medium, AAV3B 1×10^8 vg/well, Day 3): 2979.5 | Fluorescence Intensity (HEK293 cells [4]; Exp 8, disaccharide 150 mM, AAV3B 1×10^8 vg/well, Day 1): 434.5 | Fluorescence Intensity (HEK293 cells [4]; Exp 8, disaccharide 150 mM, AAV3B 1×10^8 vg/well, Day 2): 1657.3 | Fluorescence Intensity (HEK293 cells [4]; Exp 8, disaccharide 150 mM, AAV3B 1×10^8 vg/well, Day 6): 7908.0 | Relativeness (vs No Sugar) (HEK293 cells [4]; Exp 8, disaccharide 150 mM, Day 3): 4.9
